Measurements from patent US20230085307A1, “PYRIDAZINONE COMPOUND AND HERBICIDE” (NISSAN CHEMICAL CORPORATION, priority 2019, published 2023).

Assays:
redroot pigweed [1] = test: Test Example 4: herbicidal effect by soil treatment (Table 19, symbol N); type: in vivo, redroot pigweed (Amaranthus retroflexus); settings: amount of applied herbicide 320 g/ha
Outline: (§1)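 Seeds were sown in sterilized diluvial soil and covered with about 1.5 cm of soil. An emulsion formulation diluted with water to a predetermined herbicide amount was sprayed evenly onto the soil surface. Plants grew in a greenhouse at 25° C. to 30° C., and the effect was scored three weeks after application using criteria from an earlier test.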

late watergrass = test: Test Example 1: herbicidal activity, application before weed generation under submerged conditions (Table 16, symbol A); type: in vivo, late watergrass (Echinochloa oryzicola); settings: amount of applied herbicide 320 g/ha
Outline: (§2)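 Emulsion formulation, water-diluted to set dose, was put onto the flooded surface (4 cm depth, alluvial soil) the same day weeds were sown and 2.5-leaf rice transplanted. After 3 weeks at 25-30 °C under glass, each species was rated 0 (≤5% kill) to 5 (≥90% kill).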

lambsquarters [2] = test: Test Example 4: herbicidal effect by soil treatment (Table 19, symbol O); type: in vivo, lambsquarters (Chenopodium album); settings: amount of applied herbicide 320 g/ha
Outline: as §1

southern crabgrass [3] = test: Test Example 4: herbicidal effect by soil treatment (Table 19, symbol F); type: in vivo, southern crabgrass (Digitaria ciliaris); settings: amount of applied herbicide 320 g/ha
Outline: as §1

Japanese bulrush = test: Test Example 1: herbicidal activity, application before weed generation under submerged conditions (Table 16, symbol B); type: in vivo, Japanese bulrush (Schoenoplectus juncoides); settings: amount of applied herbicide 320 g/ha
Outline: as §2

velvetleaf [4] = test: Test Example 4: herbicidal effect by soil treatment (Table 19, symbol M); type: in vivo, velvetleaf (Abutilon theophrasti); settings: amount of applied herbicide 320 g/ha
Outline: as §1

southern crabgrass [5] = test: Test Example 5: herbicidal effect by foliage application, plastic box (Table 20, symbol F); type: in vivo, southern crabgrass (Digitaria ciliaris); settings: amount of applied herbicide 320 g/ha; foliage application after 14-day growth; evaluated three weeks after application
Outline: (§3)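 Plants sown in sterilized diluvial soil and grown 14 days in a greenhouse at 25° C to 30° C, then sprayed on the foliage with the compound's emulsion diluted in water to a predetermined herbicide amount. Injury to weeds and crops scored three weeks after application on a visual rating scale.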

persian speedwell [6] = test: Test Example 5: herbicidal effect by foliage application, plastic box (Table 20, symbol R); type: in vivo, Persian speedwell (Veronica persica); settings: amount of applied herbicide 320 g/ha; foliage application after 14-day growth; evaluated three weeks after application
Outline: as §3

barnyard grass [7] = test: Test Example 5: herbicidal effect by foliage application, plastic box (Table 20, symbol H); type: in vivo, barnyard grass (Echinochloa crus-galli); settings: amount of applied herbicide 320 g/ha; foliage application after 14-day growth; evaluated three weeks after application
Outline: as §3

persian speedwell [8] = test: Test Example 4: herbicidal effect by soil treatment (Table 19, symbol R); type: in vivo, Persian speedwell (Veronica persica); settings: amount of applied herbicide 320 g/ha
Outline: as §1

wild oat [9] = test: Test Example 5: herbicidal effect by foliage application, plastic box (Table 20, symbol I); type: in vivo, wild oat (Avena fatua); settings: amount of applied herbicide 320 g/ha; foliage application after 14-day growth; evaluated three weeks after application
Outline: as §3

velvetleaf [10] = test: Test Example 5: herbicidal effect by foliage application, plastic box (Table 20, symbol M); type: in vivo, velvetleaf (Abutilon theophrasti); settings: amount of applied herbicide 320 g/ha; foliage application after 14-day growth; evaluated three weeks after application
Outline: as §3

green foxtail [11] = test: Test Example 4: herbicidal effect by soil treatment (Table 19, symbol G); type: in vivo, green foxtail (Setaria viridis); settings: amount of applied herbicide 320 g/ha
Outline: as §1

Italian ryegrass [12] = test: Test Example 4: herbicidal effect by soil treatment (Table 19, symbol K); type: in vivo, Italian ryegrass (Lolium multiflorum); settings: amount of applied herbicide 320 g/ha
Outline: as §1

wild oat [13] = test: Test Example 4: herbicidal effect by soil treatment (Table 19, symbol I); type: in vivo, wild oat (Avena fatua); settings: amount of applied herbicide 320 g/ha
Outline: as §1

chickweed [14] = test: Test Example 4: herbicidal effect by soil treatment (Table 19, symbol P); type: in vivo, common chickweed (Stellaria media); settings: amount of applied herbicide 320 g/ha
Outline: as §1

barnyard grass [15] = test: Test Example 4: herbicidal effect by soil treatment (Table 19, symbol H); type: in vivo, barnyard grass (Echinochloa crus-galli); settings: amount of applied herbicide 320 g/ha
Outline: as §1

barnyard grass [16] = test: Test Example 3: herbicidal effect by foliage application, Wagner pot (Table 18, symbol H); type: in vivo, barnyard grass (Echinochloa crus-galli); settings: 320 g/ha
Outline: (§4)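 Plants were sown in alluvial soil held under 0.1–0.5 cm standing water and grown 14 days in a greenhouse at 25–30 °C. An emulsifiable formulation, water-diluted to the set dose, was then sprayed onto the foliage, and effects were scored three weeks later using previously defined criteria.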

chickweed [17] = test: Test Example 5: herbicidal effect by foliage application, plastic box (Table 20, symbol P); type: in vivo, common chickweed (Stellaria media); settings: amount of applied herbicide 320 g/ha; foliage application after 14-day growth; evaluated three weeks after application
Outline: as §3

Italian ryegrass [18] = test: Test Example 5: herbicidal effect by foliage application, plastic box (Table 20, symbol K); type: in vivo, Italian ryegrass (Lolium multiflorum); settings: amount of applied herbicide 320 g/ha; foliage application after 14-day growth; evaluated three weeks after application
Outline: as §3

oval-leafed pondweed = test: Test Example 1: herbicidal activity, application before weed generation under submerged conditions (Table 16, symbol C); type: in vivo, oval-leafed pondweed (Monochoria vaginalis); settings: amount of applied herbicide 320 g/ha
Outline: as §2

blackgrass [19] = test: Test Example 5: herbicidal effect by foliage application, plastic box (Table 20, symbol J); type: in vivo, blackgrass (Alopecurus myosuroides); settings: amount of applied herbicide 320 g/ha; foliage application after 14-day growth; evaluated three weeks after application
Outline: as §3

blackgrass [20] = test: Test Example 4: herbicidal effect by soil treatment (Table 19, symbol J); type: in vivo, blackgrass (Alopecurus myosuroides); settings: amount of applied herbicide 320 g/ha
Outline: as §1

Chinese sprangletop = test: Test Example 3: herbicidal effect by foliage application, Wagner pot (Table 18, symbol D); type: in vivo, chinese sprangletop (Leptochloa chinensis); settings: 320 g/ha
Outline: as §4

windgrass [21] = test: Test Example 5: herbicidal effect by foliage application, plastic box (Table 20, symbol L); type: in vivo, windgrass (Apera spica-venti); settings: amount of applied herbicide 320 g/ha; foliage application after 14-day growth; evaluated three weeks after application
Outline: as §3

lambsquarters [22] = test: Test Example 5: herbicidal effect by foliage application, plastic box (Table 20, symbol O); type: in vivo, lambsquarters (Chenopodium album); settings: amount of applied herbicide 320 g/ha; foliage application after 14-day growth; evaluated three weeks after application
Outline: as §3

green foxtail [23] = test: Test Example 5: herbicidal effect by foliage application, plastic box (Table 20, symbol G); type: in vivo, green foxtail (Setaria viridis); settings: amount of applied herbicide 320 g/ha; foliage application after 14-day growth; evaluated three weeks after application
Outline: as §3

windgrass [24] = test: Test Example 4: herbicidal effect by soil treatment (Table 19, symbol L); type: in vivo, windgrass (Apera spica-venti); settings: amount of applied herbicide 320 g/ha
Outline: as §1

rice flat sedge = test: Test Example 3: herbicidal effect by foliage application, Wagner pot (Table 18, symbol E); type: in vivo, rice flat sedge (Cyperus iria); settings: 320 g/ha
Outline: as §4

redroot pigweed [25] = test: Test Example 5: herbicidal effect by foliage application, plastic box (Table 20, symbol N); type: in vivo, redroot pigweed (Amaranthus retroflexus); settings: amount of applied herbicide 320 g/ha; foliage application after 14-day growth; evaluated three weeks after application
Outline: as §3

SMILES: CCCC(=O)Oc1c(C)nn(C)c(=O)c1-c1c(-c2ccc(OC)cc2)sc2cc(F)c(F)cc12 [5-015]
- N: redroot pigweed, herbicidal effect grade (redroot pigweed [1]): 4 (Herbicidal rate of 70% or more and less than 90%)
- Herbicidal effect, A: late watergrass (late watergrass): 3 (Herbicidal rate of 40% or more and less than 70%)
- O: lambsquarters, herbicidal effect grade (lambsquarters [2]): 4 (Herbicidal rate of 70% or more and less than 90%)
- F: southern crabgrass, herbicidal effect grade (southern crabgrass [3]): 0 (Herbicidal rate of 5% or less (almost no effect))
- Herbicidal effect, B: Japanese bulrush (Japanese bulrush): 0 (Herbicidal rate of 5% or less (almost no effect))
- M: velvetleaf, herbicidal effect grade (velvetleaf [4]): 0 (Herbicidal rate of 5% or less (almost no effect))
- Herbicidal effect by foliage application, F: southern crabgrass (southern crabgrass [5]): 0 (Herbicidal rate of 5% or less (almost no effect))
- Herbicidal effect by foliage application, R: persian speedwell (persian speedwell [6]): 5 (Herbicidal rate of 90% or more (almost completely withered))
- Herbicidal effect by foliage application, H: barnyard grass (barnyard grass [7]): 0 (Herbicidal rate of 5% or less (almost no effect))
- R: persian speedwell, herbicidal effect grade (persian speedwell [8]): 5 (Herbicidal rate of 90% or more (almost completely withered))
- Herbicidal effect by foliage application, I: wild oat (wild oat [9]): 0 (Herbicidal rate of 5% or less (almost no effect))
- Herbicidal effect by foliage application, M: velvetleaf (velvetleaf [10]): 4 (Herbicidal rate of 70% or more and less than 90%)
- G: green foxtail, herbicidal effect grade (green foxtail [11]): 0 (Herbicidal rate of 5% or less (almost no effect))
- K: Italian ryegrass, herbicidal effect grade (Italian ryegrass [12]): 0 (Herbicidal rate of 5% or less (almost no effect))
- I: wild oat, herbicidal effect grade (wild oat [13]): 0 (Herbicidal rate of 5% or less (almost no effect))
- P: chickweed, herbicidal effect grade (chickweed [14]): 3 (Herbicidal rate of 40% or more and less than 70%)
- H: barnyard grass, herbicidal effect grade (barnyard grass [15]): 0 (Herbicidal rate of 5% or less (almost no effect))
- herbicidal effect on barnyard grass (H) (barnyard grass [16]): 2 (Herbicidal rate of 20% or more and less than 40%)
- Herbicidal effect by foliage application, P: chickweed (chickweed [17]): 5 (Herbicidal rate of 90% or more (almost completely withered))
- Herbicidal effect by foliage application, K: Italian ryegrass (Italian ryegrass [18]): 0 (Herbicidal rate of 5% or less (almost no effect))
- Herbicidal effect, C: oval-leafed pondweed (oval-leafed pondweed): 0 (Herbicidal rate of 5% or less (almost no effect))
- Herbicidal effect by foliage application, J: blackgrass (blackgrass [19]): 0 (Herbicidal rate of 5% or less (almost no effect))
- J: blackgrass, herbicidal effect grade (blackgrass [20]): 0 (Herbicidal rate of 5% or less (almost no effect))
- herbicidal effect on Chinese sprangletop (D) (Chinese sprangletop): 2 (Herbicidal rate of 20% or more and less than 40%)
- Herbicidal effect by foliage application, L: windgrass (windgrass [21]): 0 (Herbicidal rate of 5% or less (almost no effect))
- Herbicidal effect by foliage application, O: lambsquarters (lambsquarters [22]): 5 (Herbicidal rate of 90% or more (almost completely withered))
- Herbicidal effect by foliage application, G: green foxtail (green foxtail [23]): 0 (Herbicidal rate of 5% or less (almost no effect))
- L: windgrass, herbicidal effect grade (windgrass [24]): 0 (Herbicidal rate of 5% or less (almost no effect))
- herbicidal effect on rice flat sedge (E) (rice flat sedge): 3 (Herbicidal rate of 40% or more and less than 70%)
- Herbicidal effect by foliage application, N: redroot pigweed (redroot pigweed [25]): 5 (Herbicidal rate of 90% or more (almost completely withered))
